System: PC12 cells
Test: PC12 bioassay of NGF released from fiber
Format: cell-based
Conditions: for time period of significant cell differentiation: supernatant with released NGF
Description: Nerve growth factor (NGF) was used as the model protein to investigate if incorporation of protein into the fibre compromises its bioactivity. The bioactivity of the released NGF was confirmed by its ability to differentiate PC12 cells, and in a dose-dependent manner. (FIG. 2C) At the increasing loading concentrations of NGF indicated, significant cell differentiation could be observed for time periods of up to 3 d, 5 d and 7 d, respectively. In all cases, the minimum concentration of NGF required to induce neurite outgrowth appeared to be in the region of 0.5 ng/mL, which agrees well with the literature. See, Physiological Reviews 60, 1284-1335 (1980).
Encapsulation of recombinant human β-NGF (MW 13,200, R&D Systems) was performed in the same way as described for BSA. Ring-spooled fibers were incubated in RPMI media over a period of 1 week, during which supernatants were collected for the PC12 bioassay and NGF ELISA (DuoSet ELISA Development System for human β-NGF, R&D Systems).

For “NGF: Recombinant human β-NGF (MW 13,200, R&D Systems), model protein encapsulated in and released from the fiber”, the “minimum concentration of NGF required to induce neurite outgrowth” value (NGF released from fiber, PC12 cells) was roughly 0.5 ng/mL, the “time period of significant cell differentiation” value (loading concentration 66 ng/mL) was “up to 3 d” and the “time period of significant cell differentiation” value (loading concentration 86 ng/mL) was no more than 5 days. For the same substance, the “time period of significant cell differentiation” value (loading concentration 112 ng/mL) was no more than 7 days.
